Test [1] can be described thus: ADAM10 inhibitors, peptide cleavage, dose response, biochemical, QFRET (AID 743254).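 Further: ADAM10 enzyme with the DM2 quenched FRET peptide as substrate; EDANS fluorescence gain as the protease cuts the substrate; inhibitor potency against ADAM10 proteolytic activity.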
In test [2] the target is Disintegrin and metalloproteinase domain-containing protein 17 (Homo sapiens, UniProt P78536). In words: ADAM17 protease inhibitors, dose response, counter-screen for ADAM10 exosite inhibitor project, biochemical, quenched FRET substrate (AID 743253).
Test [3] can be described thus: HepG2 cell cytotoxicity, dose response, cytotoxicity control for Shn3 inhibitor project, CellTiter-Glo, cherry-picked (AID 624134). Format: functional, cell-based.
Test [4] has as its target T1, Galanin receptor type 3 (Homo sapiens, UniProt O60755).
T1 sequence (O60755 whole entry): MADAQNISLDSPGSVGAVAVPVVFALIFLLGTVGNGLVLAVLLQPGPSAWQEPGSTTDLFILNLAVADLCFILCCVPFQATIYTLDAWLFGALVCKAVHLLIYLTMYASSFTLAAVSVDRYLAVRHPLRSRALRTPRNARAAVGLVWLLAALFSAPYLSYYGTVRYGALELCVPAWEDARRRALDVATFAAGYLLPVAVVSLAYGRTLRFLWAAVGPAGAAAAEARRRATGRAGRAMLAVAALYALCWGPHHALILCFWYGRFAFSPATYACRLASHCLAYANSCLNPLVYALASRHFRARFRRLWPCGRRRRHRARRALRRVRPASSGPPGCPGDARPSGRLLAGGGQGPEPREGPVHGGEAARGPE
Put plainly: Fluorescence-based cell-based primary high throughput dose response assay to identify antagonists of the Galanin Receptor 3 (GalR3). Format: functional.

A short description of test [5]: cells. As to conditions: HEK-CNG. The class given is functional, cell-based.
Test [6] concerns the target Protein Wnt-3a (Mus musculus, UniProt P27467). Put plainly: Wnt3a-driven reporter signaling inhibition, dose response, selectivity assay for Gli-SUFU antagonist project, Wnt-LIGHT cells, luminescence (AID 651570).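 Further: Wnt-LIGHT reporter cells stimulated with conditioned medium from Wnt3a-producing cells.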 Format: functional. As to conditions: read-out: IC50_Mean.
The nature of test [7]: Shn3 3'UTR reporter inhibitors, dose response, cell-based, Clone20 osteoblasts, firefly luciferase, cherry-picked (AID 624132).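 Further: firefly luciferase luminescence from reporter carrying the Shn3 3'UTR in osteoblasts.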 Format: functional.
Test [8] has as its target COUP transcription factor 2 (Homo sapiens, UniProt P24468). Put plainly: Luminescence-based cell-based high throughput dose response assay to identify inhibitors of COUP-TFII (NR2F2). Format: functional.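 Further: HEK293 cells transiently cotransfected with COUP-TFII expression vector and reporter; luciferase reporter luminescence driven by COUP-TFII from the pX2-168 reporter plasmid.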
The nature of test [9]: control 3'UTR Renilla luciferase suppression, dose response, counter-screen for Shn3 inhibitor project, cell-based, Clone20-Shn3RL, cherry-picked (AID 624133). Format: functional.
For test [10], the target named is Major prion protein (Homo sapiens, UniProt P04156). Format: functional, cell-based.
The nature of test [11]: cells.
The nature of test [12]: cells. The following applies: A549.
Test [13] in a line: HepG2 cell cytotoxicity, dose response, cytotoxicity control, ATP luminescence, cherry-pick, set 6 (AID 1053125). The class given is functional, cell-based.
The nature of test [14]: Artemis endonuclease inhibitor potency, dose response, biochemical, fluorescence intensity (AID 720701).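 Further: Artemis endonuclease enzyme.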 Format: functional.
Test [15] addresses Peroxisome proliferator-activated receptor gamma/Nuclear receptor coactivator 1 (Homo sapiens, UniProt P37231). Put plainly: TR-FRET dose response biochemical High Throughput Screening assay for agonists of the steroid receptor coactivator 1 (SRC-1) recruitment by the peroxisome proliferator-activated receptor gamma (PPAR gamma): non-selective agonists. [Related pubchem assays (depositor defined):AID1300, AID1808, AID504735, AID631]. The class given is protein assay.

The target of test [16] is Peroxisome proliferator-activated receptor gamma/Nuclear receptor coactivator 3 (Homo sapiens, UniProt P37231). Put plainly: TR-FRET dose response biochemical High Throughput Screening assay for agonists of the steroid receptor coactivator 3 (SRC-3) recruitment by the peroxisome proliferator-activated receptor gamma (PPAR gamma): non-selective agonists. [Related pubchem assays: 1301 (Confirmation screen.), 1048 (Primary screen.)]. The class given is functional.

The target of test [17] is Peroxisome proliferator-activated receptor gamma/Nuclear receptor coactivator 2 (Homo sapiens, UniProt P37231). In words: TR-FRET dose response biochemical High Throughput Screening assay for agonists of the steroid receptor coactivator 2 (SRC-2) recruitment by the peroxisome proliferator-activated receptor gamma (PPAR gamma): non-selective agonists. [Related pubchem assays: 1297, 1032 ]. Format: functional.

Test [18] addresses fMet-Leu-Phe receptor (Homo sapiens, UniProt P21462). Put plainly: FPR ligands, dose response (AID 519). Format: functional.
In test [19] the target is Protein Tat (Human immunodeficiency virus type 1 group M subtype B (isolate HXB2)(HIV-1), UniProt P04608). Format: functional.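 Further: tat binding to TAR RNA read out by fluorescence polarization.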
Test [20] concerns Streptococcus. In words: Group A Streptococcus viability loss, dose response, counter-screen for streptokinase expression inhibitor project, luminescence, BacTiterGlo (AID 1915).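 Further: potency for reduction of bacterial viability or growth.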 The class given is functional, organism-based.
For test [21], the system named is Streptococcus sp. 'group A'. In words: growth inhibition of control SK(-) GAS strain, dose response, counter-screen for streptokinase expression inhibitor project, luminescence, kanamycin, BacTiterGlo, confirmation (AID 1900). Format: functional, organism-based.
The target in test [22] is T2, Fatty acid synthase (Homo sapiens, UniProt P49327). Put plainly: FAS thioesterase domain inhibitors, dose response, biochemical, endpoint fluorescence intensity, uHTS hits (AID 624327).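 Further: fluorescence from hydrolysis of an O-methyl fluorescein acyl ester substrate by the enzyme.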 The class given is functional.
Test [23] concerns the target T3, Streptokinase A (Streptococcus pyogenes serotype M1, UniProt P10520).
T3 sequence (P10520 whole entry): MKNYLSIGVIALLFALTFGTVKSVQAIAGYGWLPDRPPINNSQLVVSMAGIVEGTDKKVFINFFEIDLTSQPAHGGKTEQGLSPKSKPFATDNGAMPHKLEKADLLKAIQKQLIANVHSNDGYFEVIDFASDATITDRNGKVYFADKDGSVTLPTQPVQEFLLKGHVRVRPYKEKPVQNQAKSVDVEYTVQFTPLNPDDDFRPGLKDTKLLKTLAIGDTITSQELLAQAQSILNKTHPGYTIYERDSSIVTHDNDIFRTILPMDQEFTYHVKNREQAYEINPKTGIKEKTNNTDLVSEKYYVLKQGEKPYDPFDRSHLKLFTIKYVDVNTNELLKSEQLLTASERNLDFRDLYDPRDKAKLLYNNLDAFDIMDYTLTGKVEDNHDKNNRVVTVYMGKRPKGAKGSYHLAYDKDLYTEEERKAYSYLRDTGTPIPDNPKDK
In words: S. pyogenes streptokinase expression inhibitors, potency, dose response, plasminogen activation absorbance, OD405 (AID 1914).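 Further: secreted streptokinase activity via plasminogen activation per viability signal from cell pellet.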 Format: functional, Streptococcus pyogenes M1 GAS.

For test [24], the target named is T2, Fatty acid synthase. In words: FAS thioesterase domain inhibitors, dose response, biochemical, kinetic fluorescence intensity (AID 624326).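 Further: rate of fluorescence rise from hydrolysis of a fluorogenic O-methyl fluorescein ester substrate.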 Format: functional.
Test [25] in a line: ZM109 Env clade C HIV-1 fusion inhibitors, dose response, HeLa effector, CEM target cells, luciferase, cherry-pick (AID 652058). The class given is functional, cell-based.
Test [26] in a line: inhibitors of clade B AD8 Env fusion, dose response, cell-based, cherry-pick (AID 652062).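 Further: luciferase signal from cell-cell fusion driven by HIV-1 clade B AD8 Env; potency is for inhibitors of fusion seen as a drop in luminescence.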 Format: functional.
Test [27] can be described thus: off-target signal loss in HeLa-CEM21 co-culture – HeLa F-luc CTL cells, cherry-picked, counter-screen for HIV-1 Env fusion inhibitor project, dose response (AID 652040).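 Further: potency for signal decrease marking cytotoxic or nonspecific inhibition.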 Format: functional, cell-based.

SMILES strings stand for the structures. Activity calls are given as the source filed them.

Turning to `NC(=O)[C@@H]1CC2(CC(c3cccc(NC(=O)CC(c4ccccc4)c4ccccc4)c3)=NO2)CN1C(=O)COc1ccc(Cl)cc1` (stereo not given in full), the IC50 in [1] and in test [2] was > 69.5 µM (inactive) in each case.
Regarding `Cc1nn(C)c(C(=O)NCc2ccc(Cl)cc2)c1Cl`, the concentration at half-maximal activity (AC50) is 49.8 µM (active) in [3], 1.74 µM (active) in [7] and 6.29 µM (active) in [9]. For the same compound, the IC50 in test [4] was 0.158 µM (active); in test [6], 1.92 µM (active); in [8] it was 14 µM (inactive). Moreover, in [5], the EC50 is > 29.9 µM (inactive).
Take `CCOC(=O)N1CCN(C(=O)COc2ccc3ccccc3c2Br)CC1`: the IC50 in [10] was 6.28 µM (active); in test [11], > 138 µM (inactive).
On to `CN(C)CCOCCOc1ccc(Cl)c2ccccc12`, for which the AC50 in [12] and in [13] was > 52 µM (inactive) in each case.
In the case of `CCOC(=O)C1CCCN(Cc2nc(N)nc(Nc3ccc(Cl)cc3)n2)C1` (stereo not given), the IC50 in [14] is > 20 µM (inactive).
As to `CNC(=O)NC(=O)CSc1nc(-c2cccs2)c(C#N)c(=O)[nH]1`, the EC50 in test [15] is > 79.4 µM (inactive); in [16], > 79.4 µM (not active); in test [17] it was > 79.4 µM (not active). Further, in [10], the IC50 was 0.876 µM (active).
With `CNC(=O)NC(=O)CSc1nc(O)c(C#N)c(-c2cccs2)n1`, the IC50 in test [11] was > 138 µM (inactive).
Regarding `O=C(C1=C(O)C(=O)N(Cc2ccccc2)C1c1ccncc1)c1ccco1` (stereo not given), in test [18], the Ki is 13.6 µM (active).
For the compound `CC(=O)Oc1cccc(N2C(=O)CC(Nc3ccc(N4CCOCC4)cc3)C2=O)c1` (stereo not given), the IC50 in test [19] is 10.5 µM (inconclusive).
`Cc1ccc(NC(=O)c2[nH]cnc2C(=O)N[C@@H](CCCCNC(=O)OC(C)(C)C)C(=O)OC(C)(C)C)cc1`: the 50% effective concentration (EC50) in test [20] was 7.99 µM (active); in test [21], 5.58 µM (active); in test [23], > 150 µM (not active). Besides, the IC50 in test [22] was 2.47 µM (active); in test [1], > 7.72 µM (active); in test [2], > 69.5 µM (inactive); in test [24] it was 1.09 µM (active).
For `O=C(Nc1ccc(Oc2ccccc2)cc1)c1csc([C@H]2C[C@H](O)[C@@H](CO)O2)n1`, the results for the concentration at half-maximal activity (AC50) in [25], in test [26] and in [27] were 27.4 µM (active), 5.85 µM (active) and > 70 µM (inactive), respectively. Further, the IC50 in test [4] was 0.4 µM (active); in [8] it was 5.35 µM (active). Also, the EC50 in test [5] is > 29.9 µM (inactive).
For the compound `O=C(NCC1CCCO1)c1ccc(NC(=O)C2CCCCC2C(=O)O)cc1` (stereo not given), the Ki in [18] was > 66.7 µM (inactive).

Source of the values: ChEMBL document CHEMBL1201862, “PubChem BioAssay data set” (2004).
